Assay results taken from US20170190671A1, “BIS(ARYL)CATECHOL DERIVATIVES AS HERBICIDES” (E I DU PONT DE NEMOURS AND COMPANY, priority 2014, published 2017).

Key:
Type in all cases: in vivo
[1] = test system: Italian ryegrass (Lolium multiflorum); assay: Test A preemergence; conditions: Lolium multiflorum, pre-emergence, 240 h, 0 to 100 scale (0 no effect, 100 complete control), read-out: Ryegrass, Italian plant response rating; for pest or weed control at 31 g/ha: 31 g ai/ha; for pest or weed control at 125 g/ha: 125 g ai/ha
Summary of the method: (§1)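 Greenhouse pot test, loam/sand soil. Formulation: non-phytotoxic solvent mix plus surfactant. Pre: directed spray onto soil after sowing. Post: plants at 1–2 leaf, 2–10 cm. Rated visually vs untreated controls at ~10 d, 0 (no effect) to 100 (complete control).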

[2] = test system: giant foxtail (Setaria faberii); assay: Test A preemergence; conditions: Setaria faberi, pre-emergence, 240 h, 0 to 100 scale (0 no effect, 100 complete control), read-out: Foxtail, Giant plant response rating; for pest or weed control at 31 g/ha: 31 g ai/ha; for pest or weed control at 125 g/ha: 125 g ai/ha
Summary of the method: as §1

kochia (Kochia scoparia) [3] = assay: Test A preemergence; conditions: Bassia scoparia, pre-emergence, 240 h, 0 to 100 scale (0 no effect, 100 complete control), read-out: Kochia plant response rating; for pest or weed control at 31 g/ha: 31 g ai/ha; for pest or weed control at 125 g/ha: 125 g ai/ha
Summary of the method: as §1

[4] = test system: ragweed (common ragweed, Ambrosia elatior); assay: Test A preemergence; conditions: Ambrosia artemisiifolia, pre-emergence, 240 h, 0 to 100 scale (0 no effect, 100 complete control), read-out: Ragweed plant response rating; for pest or weed control at 31 g/ha: 31 g ai/ha; for pest or weed control at 125 g/ha: 125 g ai/ha
Summary of the method: as §1

[5] = test system: barnyardgrass (Echinochloa crus-galli); assay: Test A preemergence; conditions: Echinochloa crus-galli, pre-emergence, 240 h; for pest or weed control at 31 g/ha: 31 g ai/ha; for pest or weed control at 125 g/ha: 125 g ai/ha
Summary of the method: as §1

[6] = test system: pigweed (Amaranthus retroflexus); assay: Test A preemergence; conditions: Amaranthus retroflexus, pre-emergence, 240 h, 0 to 100 scale (0 no effect, 100 complete control), read-out: Pigweed plant response rating; for pest or weed control at 31 g/ha: 31 g ai/ha; for pest or weed control at 125 g/ha: 125 g ai/ha
Summary of the method: as §1

rice (Oryza sativa) = assay: Test B flooded paddy; conditions: Oryza sativa, 336 h; 250 g ai/ha, Flood, 13 to 15 days, scale 0 (no effect) to 100 (complete control); read-out: Plant response rating, Rice
Summary of the method: (§2)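 Visual injury ratings against untreated controls, taken 13 to 15 days after compound was added to paddy water standing 3 cm above the soil.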

[7] = test system: barnyardgrass (Echinochloa crus-galli); assay: Test B flooded paddy; conditions: Echinochloa crus-galli, 336 h; 250 g ai/ha, Flood, 13 to 15 days, scale 0 (no effect) to 100 (complete control); read-out: Plant response rating, Barnyardgrass
Summary of the method: as §2

[8] = test system: sedge, umbrella (small-flower umbrella sedge, Cyperus difformis); assay: Test B flooded paddy; conditions: Cyperus difformis, 336 h; 250 g ai/ha, Flood, 13 to 15 days, scale 0 (no effect) to 100 (complete control); read-out: Plant response rating, Sedge, Umbrella
Summary of the method: as §2

[9] = test system: ducksalad (Heteranthera limosa); assay: Test B flooded paddy; conditions: Heteranthera limosa, 336 h; 250 g ai/ha, Flood, 13 to 15 days, scale 0 (no effect) to 100 (complete control); read-out: Plant response rating, Ducksalad
Summary of the method: as §2

[10] = test system: Italian ryegrass (Lolium multiflorum); assay: Test A postemergence; conditions: Lolium multiflorum, post-emergence, 240 h, 0 to 100 scale, read-out: Plant response rating, Ryegrass, Italian; for pest or weed control at 31 g/ha: 31 g ai/ha; for pest or weed control at 125 g/ha: 125 g ai/ha
Summary of the method: as §1

[11] = test system: giant foxtail (Setaria faberii); assay: Test A postemergence; conditions: Setaria faberi, post-emergence, 240 h, 0 to 100 scale, read-out: Plant response rating, Foxtail, Giant; for pest or weed control at 31 g/ha: 31 g ai/ha; for pest or weed control at 125 g/ha: 125 g ai/ha
Summary of the method: as §1

[12] = test system: galium (catchweed bedstraw, Galium aparine); assay: Test A postemergence; conditions: Galium, post-emergence, 240 h, 0 to 100 scale, read-out: Plant response rating, Galium; for pest or weed control at 31 g/ha: 31 g ai/ha; for pest or weed control at 125 g/ha: 125 g ai/ha
Summary of the method: as §1

kochia (Kochia scoparia) [13] = assay: Test A postemergence; conditions: Bassia scoparia, post-emergence, 240 h, 0 to 100 scale, read-out: Plant response rating, Kochia; for pest or weed control at 31 g/ha: 31 g ai/ha; for pest or weed control at 125 g/ha: 125 g ai/ha
Summary of the method: as §1

[14] = test system: ragweed (common ragweed, Ambrosia elatior); assay: Test A postemergence; conditions: Ambrosia artemisiifolia, post-emergence, 240 h, 0 to 100 scale, read-out: Plant response rating, Ragweed; for pest or weed control at 31 g/ha: 31 g ai/ha; for pest or weed control at 125 g/ha: 125 g ai/ha
Summary of the method: as §1

[15] = test system: wheat (Triticum aestivum); assay: Test A postemergence; conditions: Triticum aestivum, post-emergence, 240 h, 0 to 100 scale, read-out: Plant response rating, Wheat; for plant injury at 31 g/ha: 31 g ai/ha; for plant injury at 125 g/ha: 125 g ai/ha
Summary of the method: as §1

[16] = test system: barnyardgrass (Echinochloa crus-galli); assay: Test A postemergence; conditions: Echinochloa crus-galli, post-emergence, 240 h, 0 to 100 scale, read-out: Plant response rating, Barnyardgrass; for pest or weed control at 31 g/ha: 31 g ai/ha; for pest or weed control at 125 g/ha: 125 g ai/ha
Summary of the method: as §1

[17] = test system: pigweed (Amaranthus retroflexus); assay: Test A postemergence; conditions: Amaranthus retroflexus, post-emergence, 240 h, 0 to 100 scale, read-out: Plant response rating, Pigweed; for pest or weed control at 31 g/ha: 31 g ai/ha; for pest or weed control at 125 g/ha: 125 g ai/ha
Summary of the method: as §1

[18] = test system: blackgrass (Alopecurus myosuroides); assay: Test A postemergence; conditions: Alopecurus myosuroides, post-emergence, 240 h, 0 to 100 scale, read-out: Plant response rating, Blackgrass; for pest or weed control at 31 g/ha: 31 g ai/ha; for pest or weed control at 125 g/ha: 125 g ai/ha
Summary of the method: as §1

corn (Zea mays) = assay: Test A postemergence; conditions: Zea mays, post-emergence, 240 h, 0 to 100 scale; for Corn plant response rating (crop injury, 0 = no effect, 100 = complete kill) at 31 g/ha: 31 g ai/ha; for Corn plant response rating (crop injury, 0 = no effect, 100 = complete kill) at 125 g/ha: 125 g ai/ha
Summary of the method: as §1

[19] = 0 to 100 scale (0 no effect, 100 complete control), read-out: Barnyardgrass plant response rating

Row | SMILES | pest or weed control at 31 g/ha [1] [%] | pest or weed control at 125 g/ha [1] [%] | pest or weed control at 31 g/ha [2] [%] | pest or weed control at 125 g/ha [2] [%] | pest or weed control at 31 g/ha (kochia (Kochia scoparia) [3]) [%] | pest or weed control at 125 g/ha (kochia (Kochia scoparia) [3]) [%] | pest or weed control at 31 g/ha [4] [%] | pest or weed control at 125 g/ha [4] [%] | pest or weed control at 31 g/ha [5, 19] [%] | pest or weed control at 31 g/ha [6] [%] | pest or weed control at 125 g/ha [6] [%] | plant injury at 250 g/ha (rice (Oryza sativa)) [%] | pest or weed control at 250 g/ha [7] [%] | pest or weed control at 250 g/ha [8] [%] | pest or weed control at 250 g/ha [9] [%] | pest or weed control at 31 g/ha [10] [%] | pest or weed control at 125 g/ha [10] [%] | pest or weed control at 31 g/ha [11] [%] | pest or weed control at 125 g/ha [11] [%] | pest or weed control at 31 g/ha [12] [%] | also measured
1 | Fc1ccc(F)c(Oc2ncc(Br)cn2)c1Oc1ncc(Br)cn1 [Compound 31] | 0 | 0 | 40 | 90 | 30 | 90 | 0 | 20 | 0 | 70 | 100 | 0 | 0 | 50 | 50 | 10 | 30 | 20 | 40 | 70 | pest or weed control at 125 g/ha ([5]; 0 to 100 scale, read-out: Plant response rating, Barnyardgrass): 70%; pest or weed control at 125 g/ha [12]: 100%; pest or weed control at 31 g/ha (kochia (Kochia scoparia) [13]): 20%; pest or weed control at 125 g/ha (kochia (Kochia scoparia) [13]): 80%; pest or weed control at 31 g/ha [14]: 0%; pest or weed control at 125 g/ha [14]: 0%; plant injury at 31 g/ha [15]: 20%; plant injury at 125 g/ha [15]: 30%; pest or weed control at 31 g/ha [16]: 10%; pest or weed control at 125 g/ha [16]: 20%; pest or weed control at 31 g/ha [17]: 90%; pest or weed control at 125 g/ha [17]: 90%; pest or weed control at 31 g/ha [18]: 20%; pest or weed control at 125 g/ha [18]: 30%; Corn plant response rating (crop injury, 0 = no effect, 100 = complete kill) at 31 g/ha (corn (Zea mays)): 20%; Corn plant response rating (crop injury, 0 = no effect, 100 = complete kill) at 125 g/ha (corn (Zea mays)): 30%
2 | N#Cc1cccc(Oc2ncc(Cl)cn2)c1Oc1cccc(Cl)c1 [Compound 37] | 0 | 0 | 0 | 0 | 0 | 0 | 0 | 0 | 0 | 0 | 0 | 0 | 0 | 0 | 0 | 0 | 0 | 0 | 0 | 0 | pest or weed control at 125 g/ha [5, 19]: 0%; pest or weed control at 125 g/ha [12]: 0%; pest or weed control at 31 g/ha (kochia (Kochia scoparia) [13]): 0%; pest or weed control at 125 g/ha (kochia (Kochia scoparia) [13]): 0%; pest or weed control at 31 g/ha [14]: 0%; pest or weed control at 125 g/ha [14]: 0%; plant injury at 31 g/ha [15]: 0%; plant injury at 125 g/ha [15]: 0%; pest or weed control at 31 g/ha [16]: 0%; pest or weed control at 125 g/ha [16]: 0%; pest or weed control at 31 g/ha [17]: 0%; pest or weed control at 125 g/ha [17]: 0%; pest or weed control at 31 g/ha [18]: 0%; pest or weed control at 125 g/ha [18]: 0%; Corn plant response rating (crop injury, 0 = no effect, 100 = complete kill) at 31 g/ha (corn (Zea mays)): 0%; Corn plant response rating (crop injury, 0 = no effect, 100 = complete kill) at 125 g/ha (corn (Zea mays)): 0%
